From ChEMBL document CHEMBL5705896 (ACS Chem Biol, 2013)

Experiments:
[1] = molecular target: Histone-lysine N-methyltransferase SUV39H2 (Homo sapiens, UniProt Q9H5I1); assay: Inhibition of SUV39H2 (unknown origin) using [3H-SAM] as substrate incubated for 1 hr by scintillation proximity assay
[2] = molecular target: Hepatocyte growth factor receptor (Homo sapiens) (UniProt P08581); assay: Inhibition of human cytoplasmic domain N-terminal GST tagged MET (956 to 1390 end residues) expressed in baculovirus expression system using Srctide as substrate at 10 uM by mobility shift assay relative to control
[3] = molecular target: T1, Histone-lysine N-methyltransferase EZH2 (Homo sapiens, UniProt Q15910)
[4] = molecular target: Angiopoietin-1 receptor (Homo sapiens) (UniProt Q02763); assay: Inhibition of human cytoplasmic domain N-terminal GST tagged TIE2 (771 to 1124 end residues) expressed in baculovirus expression system using Blk/lyntide as substrate at 10 uM by mobility shift assay relative to control
[5] = molecular target: N-lysine methyltransferase KMT5A (Homo sapiens, UniProt Q9NQR1); assay: Inhibition of SETD8 (unknown origin) using [3H-SAM] as substrate incubated for 1 hr by scintillation proximity assay
[6] = molecular target: Receptor-type tyrosine-protein kinase FLT3 (Homo sapiens) (UniProt P36888); assay: Inhibition of human cytoplasmic domain N-terminal GST tagged FLT3 (564 to 993 end residues) expressed in baculovirus expression system using Srctide as substrate at 10 uM by mobility shift assay relative to control
[7] = molecular target: Beta-2 adrenergic receptor (Homo sapiens) (UniProt P07550); assay: Inhibition of Beta2 receptor (unknown origin) at 10 uM by radioligand binding assay relative to control
[8] = molecular target: 3-phosphoinositide-dependent protein kinase 1 (Homo sapiens) (UniProt O15530); assay: Inhibition of full length human N-terminal GST tagged PDK1 (1 to 556 end residues) expressed in baculovirus expression system using T308tide as substrate at 10 uM by mobility shift assay relative to control
[9] = molecular target: D(4) dopamine receptor (Homo sapiens) (UniProt P21917); assay: Inhibition of dopamine D4 receptor (unknown origin) at 10 uM by radioligand binding assay relative to control
[10] = molecular target: Ephrin type-B receptor 4 (Homo sapiens) (UniProt P54760); assay: Inhibition of human cytoplasmic domain N-terminal GST tagged EPHB4 (577 to 987 end residues) expressed in baculovirus expression system using Blk/lyntide as substrate at 10 uM by mobility shift assay relative to control
[11] = Inhibition of human catalytic domain N-terminal GST tagged p70S6K (1 to 421 residues) expressed in baculovirus expression system using S6K2 peptide as substrate at 10 uM by mobility shift assay relative to control; settings: condition weaver syndrome
[12] = molecular target: Rho-associated protein kinase 1 (Homo sapiens) (UniProt Q13464); assay: Inhibition of human catalytic domain N-terminal GST tagged ROCK1 (1 to 477 residues) expressed in baculovirus expression system using LIMKtide as substrate at 10 uM by mobility shift assay relative to control
[13] = molecular target: Serine/threonine-protein kinase pim-1 (Homo sapiens) (UniProt P11309); assay: Inhibition of full length human N-terminal his-tagged PIM1 (1 to 313 end residues) expressed in baculovirus expression system using S6K2 peptide as substrate at 10 uM by mobility shift assay relative to control
[14] = molecular target: MAP kinase-activated protein kinase 2 (Homo sapiens) (UniProt P49137); assay: Inhibition of full length human N-terminal GST tagged MAPKAPK2 1 to 400 end residues) expressed in baculovirus expression system using GS as peptide at 10 uM by mobility shift assay relative to control
[15] = molecular target: 5-hydroxytryptamine receptor 6 (Homo sapiens) (UniProt P50406); assay: Inhibition of 5-HT6 receptor (unknown origin) at 10 uM by radioligand binding assay relative to control
[16] = molecular target: Fibroblast growth factor receptor 1 (Homo sapiens) (UniProt P11362); assay: Inhibition of human cytoplasmic domain N-terminal GST tagged FGFR1 (398 to 822 end residues) expressed in baculovirus expression system using CSKtide as substrate at 10 uM by mobility shift assay relative to control
[17] = molecular target: N-lysine methyltransferase SMYD2 (Homo sapiens, UniProt Q9NRG4); assay: Inhibition of SMYD2 (unknown origin) using [3H-SAM] as substrate incubated for 1 hr by scintillation proximity assay
[18] = molecular target: Histone-lysine N-methyltransferase EZH2 (Homo sapiens, UniProt Q15910, Y641F); assay: Inhibition of EZH2 Y641F mutant (unknown origin) using HMT as substrate incubated for 60 mins by luminescence based analysis
[19] = molecular target: Protein-tyrosine kinase 2-beta (Homo sapiens) (UniProt Q14289); assay: Inhibition of full length human N-terminal GST tagged PYK2 (1 to 967 end residues) expressed in baculovirus expression system using Blk/lyntide as substrate at 10 uM by mobility shift assay relative to control
[20] = molecular target: T1, Histone-lysine N-methyltransferase EZH2; remark: listed apart in the source
[21] = molecular target: Insulin-like growth factor 1 receptor (Homo sapiens) (UniProt P08069); assay: Inhibition of human cytoplasmic domain N-terminal GST tagged IGF1R (959 to 1367 end residues) expressed in baculovirus expression system using IRS1 as substrate at 10 uM by mobility shift assay relative to control
[22] = molecular target: Inhibitor of nuclear factor kappa-B kinase subunit beta (Homo sapiens) (UniProt O14920); assay: Inhibition of truncated human N-terminal his-tagged IKK beta (1 to 662 residues) expressed in baculovirus expression system using modified IkappaB-alpha derived peptide as substrate at 10 uM by mobility shift assay relative to control
[23] = molecular target: T1, Histone-lysine N-methyltransferase EZH2; assay: Inhibition of EZH2 methyltransferase activity (unknown origin) in PRC2 complex using 3H-SAM as substrate by Scintillation proximity assay
[24] = molecular target: Mu-type opioid receptor (Homo sapiens) (UniProt P35372); assay: Inhibition of MOR (unknown origin) at 10 uM by radioligand binding assay relative to control
[25] = molecular target: Muscarinic acetylcholine receptor M5 (Homo sapiens) (UniProt P08912); assay: Inhibition of M5 receptor (unknown origin) at 10 uM by radioligand binding assay relative to control
[26] = molecular target: Mitogen-activated protein kinase 1 (Homo sapiens) (UniProt P28482); assay: Inhibition of full length human N-terminal GST tagged Erk2 (1 to 360 end residues) expressed in Escherichia coli expression system using modified Erktide as substrate at 10 uM by mobility shift assay relative to control
[27] = molecular target: Epidermal growth factor receptor (Homo sapiens) (UniProt P00533); assay: Inhibition of human cytoplasmic domain N-terminal GST tagged EGFR (669 to 1210 end residues) expressed in baculovirus expression system using Srctide as substrate at 10 uM by mobility shift assay relative to control
[28] = molecular target: Alpha-2A adrenergic receptor (Homo sapiens) (UniProt P08913); assay: Inhibition of Alpha2A receptor (unknown origin) at 10 uM by radioligand binding assay relative to control

## CCCc1cc(C)[nH]c(=O)c1CNC(=O)c1cc(-c2ccc(N3CCN(C(C)C)CC3)nc2)cc2c1cnn2C(C)C
[1]
  IC50: > 100000 nM
[2]
  inhibition: -3%
[3]
  IC50: 124 nM
[4]
  inhibition: -6%
[5]
  IC50: > 100000 nM
[6]
  inhibition: 16%
[7]
  inhibition: 14%
[8]
  inhibition: -6%
[9]
  inhibition: 2%
[10]
  inhibition: -6%
[11]
  inhibition at 10 µM: 6%
[12]
  inhibition: 5%
[13]
  inhibition: 1%
[14]
  inhibition: 4%
[15]
  inhibition: 11%
[16]
  inhibition: -9%
[17]
  IC50: > 100000 nM
[18]
  IC50: < 15 nM
[19]
  inhibition: -5%
[20]
  Ki: 4.6 nM
[21]
  inhibition: -7%
[22]
  inhibition: -3%
[23]
  IC50: < 10 nM
[24]
  inhibition: 13%
[25]
  inhibition: 9%
[26]
  inhibition: 3%
[27]
  inhibition: -3%
[28]
  inhibition: 14%
